The structures appear in SMILES notation.

Data set [1] concerns NLRP3-activated ASC oligomerization. More on the design: method as in PMID 25210146. As to conditions: cited from earlier work.
Data set [2] relates to NLRP3-dependent interleukin (IL)-1β production. Also on record: method as in PMID 25210146. As to conditions: cited from earlier work.
A short description of data set [3]: Pharmacokinetic study in rats after single oral administration of GJK (UPLC-MS/MS of plasma). As to conditions: Sprague-Dawley, in vivo, single oral GJK 24 g/kg. In kind it is in vivo, Sprague–Dawley rats. Here is the method: Chromatographic analyses were performed using an Agilent 1290 series UPLC system (Agilent Technologies, Santa Clara, CA, USA) equipped with a binary pump, an online degasser, an auto plate sampler, and a thermostatically controlled column compartment. The determination was carried out at 30 °C on a Waters Acquity UPLC C18 column (100 mm × 2.1 mm, […], Waters, Milford, MA, USA). The mobile phase consisted of 0.1% formic acid (A) and acetonitrile (B) using a gradient elution of 10%–34% B at 0–6 min, 34%–80% B at 6–10 min, 80% B at 10–12 min, 10% B at 12–15 min, and the re-equilibration time of gradient elution was 1 min. The sample injection volume was 5 µL, and the flow rate was 0.35 mL/min. The MS detection was performed using an Agilent 6460 Triple Quadrupole MS (Agilent Technologies) equipped with an electrospray ionization (ESI) source. […] Other parameters were as follows: drying gas (N2) flow rate, 11.0 L/min.
Plasma samples (50 µL) were thawed on ice and mixed with 200 µL of IS (20.0 ng/mL) via vortexing for 1 min. Then, the mixture was centrifuged at 13,500 rpm for 15 min to separate the precipitated protein at 4 °C. The supernatant was transferred into a clean Eppendorf tube and evaporated to dryness under a stream of nitrogen. The residues were reconstituted with 50 µL of water–methanol (50:50, v/v), vortexed and centrifuged at 13,500 rpm for 15 min. Then, the supernatants were injected into the UPLC–MS/MS for analysis.
Sprague–Dawley rats (200–250 g) were obtained from the Center of the Chinese University of Hong Kong and were kept in an environmentally controlled room (temperature: 25 ± 2 °C, humidity: 50% ± 5%, 12 h dark-light cycle) for at least 7 days before the experiments. Prior to the experiments, the animals were fasted for 24 h with water ad libitum. All protocols of animal experiments were approved in accordance with the regulations of the Experimental Animal Administration issued by the Macau University of Science and Technology.
The blood samples (100 µL) were individually collected from the caudal vein into heparinized tubes before administration, and 5, 10, 15, 30, 45, 60, 90, 120, 240, 360, 480, 720 and 1440 min after administration, and then immediately centrifuged at 4500 rpm for 15 min. […] The main PK parameters, including the maximum plasma concentration (Cmax), time to reach Cmax (Tmax), half-life time (T1/2), area under the curve (AUC 0–t and AUC 0–∞) and mean residence time (MRT), were calculated via the non-compartment model using the pharmacokinetic software, PK Solutions 2.0 (Summit Co., Montrose, CO, USA).

The test system of data set [4] is toll-like receptor 4 (TLR4)/MD2 complex. More on the design: method as in PMID 22422925. The settings on record: cited from earlier work.
Data set [5] is described as follows: Stability of the analytes in rat plasma under different storage conditions (QC samples). In kind it is in vitro ADME. As to conditions: n = 3; for Remaining (%) / remaining at 4 h / remaining at 360 h: rat plasma; for Remaining (%): freeze–thaw cycles (three); for remaining at 24 h / remaining at 4 h / remaining at 360 h: rat, plasma; for remaining at 24 h: extracted plasma QC samples in auto-sampler, 4 °C for 24 h; for remaining at 4 h: 25 °C for 4 h; for remaining at 360 h: at −70 °C for 15 days. Here is the method:
The stability of the seven compounds in rat plasma was assessed by analyzing the QC samples at three concentrations under different sample storage conditions and processing procedures. Short-term stability was assessed by analyzing the QC samples that were kept at room temperature for 4 h, which exceeded the routine sample preparation time. […] Freeze-thaw stability was investigated after three freeze (−40 °C) and thaw (room temperature) cycles. Post-preparation stability was assessed by analyzing the extracted QC samples that were kept in the auto-sampler at 4 °C for […]. All stability testing QC samples were evaluated using the calibration curve of the freshly prepared samples.

Regarding `O=C(/C=C/c1ccc(O)cc1)c1ccc(O)cc1O` [Isoliquiritigenin, isoliquiritigenin], the “Effect on NLRP3-activated ASC oligomerization” value in data set [1] was “inhibit NACHT, LRR and PYD domains-containing protein 3 (NLRP3)-activated apoptosis-associated speck-like protein (ASC) oligomerization”. For the same molecule, the “Concentration that inhibits NLRP3-dependent IL-1β production” value in data set [2] (at both the priming step and the activation step) is recorded as 1 µM. Further, the “Concentration that inhibits NLRP3-dependent IL-1β production, converted to mass concentration” value in data set [2] (printed as equal to 1 µM) is 256 ng/mL. Further, the AUC(0-inf) in data set [3] (rat plasma, n = 6, AUC0–t extrapolated to infinity, mean ± S.D.) is 2750 ng·h/mL. Besides, the half-life in data set [3] (rat plasma, n = 6, mean ± S.D., non-compartmental, read-out: T1/2z (terminal elimination half-life)) was 293 ± 48 min. In data set [3] (rat plasma, n = 6, mean ± S.D., read-out: Cmax (maximum plasma concentration)), the Cmax amounted to 337 ± 103 ng/mL. Besides, the MRT last in data set [3] (rat plasma, n = 6, mean ± S.D., read-out: MRT0–t (mean residence time) (converted)) is 7.75 h. The same molecule showed an AUC(0-t) in data set [3] (rat plasma, n = 6, zero to last sampling time, mean ± S.D.) of 2650 ng·h/mL. In data set [3] (rat, po, 24 g/kg, n = 6, median (minimum, maximum), read-out: Tmax (time to reach peak concentration) (converted)), the Tmax was 3 h. Moreover, the “Effect on LPS-induced TLR4/MD2 complex signaling and NF-κB activation” value in data set [4] was “block lipopolysaccharides (LPS)-induced toll-like receptor 4 (TLR4)/MD2 complex signaling and nuclear factor NF-κB activation”. In data set [5] (high QC concentration), the “Remaining (%)” value is listed as 105.2%, the amount remaining at 24 h was found to be 102%, the fraction remaining at 4 h came to 103% and the share remaining at 360 h came to 102%. For the same molecule, in data set [5] (low QC concentration), the “Remaining (%)” value came out at 106.3%, the amount remaining at 24 h worked out at 94.6%, the amount remaining at 4 h worked out at 102% and the amount remaining at 360 h is 103%. Moreover, in data set [5] (medium QC concentration), the “Remaining (%)” value is listed as 107.0%, the share remaining at 24 h came to 102%, the share remaining at 4 h came to 103% and the fraction remaining at 360 h is 96.2%.

What is called AUC(0-inf) is the area under the concentration-time curve extrapolated to infinity. Usually AUC(0-t) stands for exposure summed from dosing to a finite time, without extrapolation to infinity. High values mean more exposure, low ones less exposure.
